Test results taken from ChEMBL document CHEMBL5338797, “Rational Design of Covalent Kinase Inhibitors by an Integrated Computational Workflow (Kin-Cov)” (J Med Chem, 2023).
Activity calls are given as the source filed them. No cut-off for these calls is given here.

Tests used:
[1] = target: T1, Mitogen-activated protein kinase kinase kinase 20 (Homo sapiens, UniProt Q9NYL2); test: Inhibition of recombinant ZAK (unknown origin) using ATP as substrate preincubated for 60 mins followed by substrate addition and measured after 40 mins by fluorescence based envision multilabel reader method
Target sequence in this assay (Q9NYL2 whole entry): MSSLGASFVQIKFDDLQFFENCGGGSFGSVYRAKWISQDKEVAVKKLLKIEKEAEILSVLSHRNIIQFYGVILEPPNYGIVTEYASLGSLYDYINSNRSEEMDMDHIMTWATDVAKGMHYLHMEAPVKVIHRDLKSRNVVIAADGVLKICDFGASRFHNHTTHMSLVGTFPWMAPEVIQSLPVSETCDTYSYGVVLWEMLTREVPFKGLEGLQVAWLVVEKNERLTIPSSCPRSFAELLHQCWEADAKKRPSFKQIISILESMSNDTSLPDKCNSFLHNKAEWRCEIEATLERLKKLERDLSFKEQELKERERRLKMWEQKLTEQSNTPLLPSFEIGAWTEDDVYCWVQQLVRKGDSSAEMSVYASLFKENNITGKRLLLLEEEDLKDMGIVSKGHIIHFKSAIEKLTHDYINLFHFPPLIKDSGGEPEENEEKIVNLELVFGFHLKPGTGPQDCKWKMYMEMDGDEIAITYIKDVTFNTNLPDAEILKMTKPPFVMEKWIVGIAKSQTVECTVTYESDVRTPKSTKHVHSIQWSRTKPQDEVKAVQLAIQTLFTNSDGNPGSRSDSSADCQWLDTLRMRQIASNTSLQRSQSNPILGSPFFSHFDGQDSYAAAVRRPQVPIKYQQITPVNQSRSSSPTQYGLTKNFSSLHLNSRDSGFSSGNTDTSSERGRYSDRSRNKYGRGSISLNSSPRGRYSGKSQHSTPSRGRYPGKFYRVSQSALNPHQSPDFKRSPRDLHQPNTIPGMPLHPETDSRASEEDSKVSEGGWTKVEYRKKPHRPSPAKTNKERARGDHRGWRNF

[2] = tested on: U2OS; test: Induction of apoptosis in human U2OS cells assessed as increase in cleaved-caspase 3 level at 100 uM measured for 4 hrs; format: functional, cell-based
[3] = target: MAP kinase p38 (Homo sapiens) (UniProt O15264+Q15759+Q16539+P53778); test: Inhibition of p38 phosphorylation in human U2OS cells measured for 1 hr by Western blot analysis; format: cell-based; settings: dose <= 10.0 µM
[4] = target: Serine/threonine-protein kinase B-raf (Homo sapiens, UniProt P15056, V600E); test: Inhibition of B-RAF V600E mutant (unknown origin) incubated for 1 hr in presence of ATP by envision multilabel reader analysis
[5] = target: T2, LIM domain kinase 2 (Homo sapiens, UniProt P53671); test: Inhibition of full length human LIMK2 at 1000 nM by KINOMEscan assay relative to control; values are per cent of control
Target sequence in this assay (P53671 whole entry, looked up, the tested form may be a part): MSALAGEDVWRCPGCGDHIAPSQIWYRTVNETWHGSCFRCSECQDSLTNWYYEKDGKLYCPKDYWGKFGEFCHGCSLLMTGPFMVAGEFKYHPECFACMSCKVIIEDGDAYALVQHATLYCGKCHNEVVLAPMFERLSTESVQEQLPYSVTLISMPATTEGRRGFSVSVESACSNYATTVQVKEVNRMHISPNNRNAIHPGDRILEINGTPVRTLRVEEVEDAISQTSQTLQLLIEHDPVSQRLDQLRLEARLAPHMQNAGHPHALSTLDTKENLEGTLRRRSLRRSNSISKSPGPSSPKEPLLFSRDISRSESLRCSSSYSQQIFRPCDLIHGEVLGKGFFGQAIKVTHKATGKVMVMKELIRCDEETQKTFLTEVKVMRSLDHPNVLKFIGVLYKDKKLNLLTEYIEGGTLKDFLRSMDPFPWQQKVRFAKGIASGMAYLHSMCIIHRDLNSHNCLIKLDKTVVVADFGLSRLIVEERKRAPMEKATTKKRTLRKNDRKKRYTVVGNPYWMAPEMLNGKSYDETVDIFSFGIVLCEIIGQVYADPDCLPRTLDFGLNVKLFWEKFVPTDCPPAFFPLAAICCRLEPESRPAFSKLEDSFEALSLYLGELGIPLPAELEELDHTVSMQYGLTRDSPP

[6] = target: T1, Mitogen-activated protein kinase kinase kinase 20; test: Inhibition of partial length human ZAK by KINOMEscan assay
Target sequence in this assay (Q9NYL2 whole entry): as the sequence (Q9NYL2 whole entry) above

[7] = target: T1, Mitogen-activated protein kinase kinase kinase 20; test: Inhibition of ZAKapha (unknown origin) at 10 uM measured after 1 hr by Western blot analysis
Target sequence in this assay (Q9NYL2 2-800 limits assumed): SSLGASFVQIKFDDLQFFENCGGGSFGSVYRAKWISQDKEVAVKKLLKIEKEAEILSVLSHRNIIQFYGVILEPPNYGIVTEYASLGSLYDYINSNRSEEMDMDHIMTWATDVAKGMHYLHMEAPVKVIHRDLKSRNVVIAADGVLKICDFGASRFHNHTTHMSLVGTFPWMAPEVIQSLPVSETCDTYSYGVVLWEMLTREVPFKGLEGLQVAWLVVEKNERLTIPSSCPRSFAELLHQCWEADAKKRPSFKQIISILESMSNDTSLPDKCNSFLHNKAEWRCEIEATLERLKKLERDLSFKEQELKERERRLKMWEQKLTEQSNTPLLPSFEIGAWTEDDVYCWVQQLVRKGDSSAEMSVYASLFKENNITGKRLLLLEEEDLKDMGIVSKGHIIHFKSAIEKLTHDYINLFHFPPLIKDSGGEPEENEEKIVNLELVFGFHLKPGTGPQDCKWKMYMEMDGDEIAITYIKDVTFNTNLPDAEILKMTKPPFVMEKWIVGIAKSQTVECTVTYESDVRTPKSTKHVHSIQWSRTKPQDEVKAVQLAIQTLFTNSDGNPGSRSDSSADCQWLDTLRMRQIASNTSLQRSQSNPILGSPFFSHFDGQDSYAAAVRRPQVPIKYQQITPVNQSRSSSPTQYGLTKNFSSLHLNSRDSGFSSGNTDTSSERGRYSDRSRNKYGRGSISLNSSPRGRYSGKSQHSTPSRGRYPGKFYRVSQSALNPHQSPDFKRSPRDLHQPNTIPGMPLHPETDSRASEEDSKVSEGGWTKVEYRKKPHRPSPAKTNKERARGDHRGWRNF

[8] = target: T3, Tyrosine-protein kinase Lck (Homo sapiens, UniProt P06239); test: Inhibition of partial length human LCK by KINOMEscan assay
Target sequence in this assay (P06239 whole entry, the tested form may be a part): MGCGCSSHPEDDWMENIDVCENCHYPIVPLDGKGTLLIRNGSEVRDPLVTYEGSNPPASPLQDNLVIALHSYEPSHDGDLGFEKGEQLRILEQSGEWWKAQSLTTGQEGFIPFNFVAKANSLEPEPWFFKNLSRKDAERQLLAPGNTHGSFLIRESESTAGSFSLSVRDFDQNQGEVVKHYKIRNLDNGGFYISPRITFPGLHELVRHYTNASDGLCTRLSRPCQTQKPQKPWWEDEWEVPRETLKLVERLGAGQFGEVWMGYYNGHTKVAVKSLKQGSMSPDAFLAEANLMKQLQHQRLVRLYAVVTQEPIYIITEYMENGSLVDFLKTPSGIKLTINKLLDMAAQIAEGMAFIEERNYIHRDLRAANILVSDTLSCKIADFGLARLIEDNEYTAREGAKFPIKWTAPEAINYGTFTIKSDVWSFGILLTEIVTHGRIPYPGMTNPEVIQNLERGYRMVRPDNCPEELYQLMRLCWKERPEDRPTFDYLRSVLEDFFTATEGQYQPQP

[9] = target: T4, LIM domain kinase 1 (Homo sapiens, UniProt P53667); test: Inhibition of full length human LIMK1 at 1000 nM by KINOMEscan assay relative to control; values are per cent of control
Target sequence in this assay (P53667 whole entry, looked up, the tested form may be a part): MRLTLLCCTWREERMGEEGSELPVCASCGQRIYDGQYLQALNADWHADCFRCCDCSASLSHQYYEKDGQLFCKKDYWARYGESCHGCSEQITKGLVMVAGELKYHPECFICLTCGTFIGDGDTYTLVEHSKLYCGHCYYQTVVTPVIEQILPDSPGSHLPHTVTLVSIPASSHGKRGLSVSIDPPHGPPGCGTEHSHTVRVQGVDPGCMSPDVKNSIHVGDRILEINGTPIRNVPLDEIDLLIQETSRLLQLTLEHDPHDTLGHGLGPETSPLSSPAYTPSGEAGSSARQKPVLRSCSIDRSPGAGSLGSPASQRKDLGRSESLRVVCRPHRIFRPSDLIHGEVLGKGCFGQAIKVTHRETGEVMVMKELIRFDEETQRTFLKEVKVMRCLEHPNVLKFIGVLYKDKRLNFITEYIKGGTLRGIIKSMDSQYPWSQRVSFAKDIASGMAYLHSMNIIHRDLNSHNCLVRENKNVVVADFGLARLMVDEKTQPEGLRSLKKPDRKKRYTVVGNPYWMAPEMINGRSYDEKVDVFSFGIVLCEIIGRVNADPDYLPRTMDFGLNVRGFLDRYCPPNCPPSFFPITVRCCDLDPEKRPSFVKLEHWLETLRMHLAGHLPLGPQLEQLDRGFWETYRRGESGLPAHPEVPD

[10] = tested on: U2OS; test: Induction of apoptosis in ZAK knockout human U2OS cells assessed as increase in cleaved-caspase 3 level at 10 uM measured for 4 hrs; format: functional, cell-based
[11] = target: T4, LIM domain kinase 1; test: Inhibition of full length human LIMK1 by KINOMEscan assay
Target sequence in this assay (P53667 whole entry, the tested form may be a part): as the sequence (P53667 whole entry, looked up, the tested form may be a part) above

[12] = tested on: U2OS; test: Induction of apoptosis in ZAK knockout human U2OS cells assessed as reduction in cell death at 10 uM measured after 24 hrs in presence of doxorubicin; format: functional, cell-based
[13] = target: T1, Mitogen-activated protein kinase kinase kinase 20; test: Inhibition of ZAKbeta (unknown origin) at 10 uM measured after 1 hr by Western blot analysis
Target sequence in this assay (Q9NYL2 2-800 limits assumed): as the sequence (Q9NYL2 2-800 limits assumed) above

[14] = target: T2, LIM domain kinase 2; test: Inhibition of full length human LIMK2 by KINOMEscan assay
Target sequence in this assay (P53671 whole entry, the tested form may be a part): as the sequence (P53671 whole entry, looked up, the tested form may be a part) above

[15] = tested on: U2OS; test: Induction of apoptosis in human U2OS cells assessed as reduction in cell death at 10 uM measured after 24 hrs in presence of doxorubicin; format: functional, cell-based
[16] = target: T3, Tyrosine-protein kinase Lck; test: Inhibition of partial length human LCK at 1000 nM by KINOMEscan assay relative to control; values are per cent of control
Target sequence in this assay (P06239 2-509 limits assumed): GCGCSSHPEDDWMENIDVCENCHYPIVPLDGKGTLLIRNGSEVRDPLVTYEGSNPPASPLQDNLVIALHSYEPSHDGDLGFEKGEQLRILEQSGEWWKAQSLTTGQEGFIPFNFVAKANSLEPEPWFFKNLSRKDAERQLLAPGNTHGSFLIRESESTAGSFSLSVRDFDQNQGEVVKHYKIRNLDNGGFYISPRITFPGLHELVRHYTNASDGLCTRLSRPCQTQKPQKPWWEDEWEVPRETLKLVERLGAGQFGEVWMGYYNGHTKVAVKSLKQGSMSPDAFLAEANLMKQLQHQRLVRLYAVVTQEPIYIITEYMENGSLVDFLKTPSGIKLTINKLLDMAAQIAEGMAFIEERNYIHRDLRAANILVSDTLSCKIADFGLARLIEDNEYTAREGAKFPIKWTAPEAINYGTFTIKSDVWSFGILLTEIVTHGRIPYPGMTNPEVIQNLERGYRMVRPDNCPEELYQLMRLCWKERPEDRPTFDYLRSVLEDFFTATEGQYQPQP

[17] = target: T1, Mitogen-activated protein kinase kinase kinase 20; test: Inhibition of partial length human ZAK at 1000 nM by KINOMEscan assay relative to control; values are per cent of control
Target sequence in this assay (Q9NYL2 2-800 limits assumed): as the sequence (Q9NYL2 2-800 limits assumed) above

Sequence of Serine/threonine-protein kinase B-raf (P15056 2-766 V600E limits assumed): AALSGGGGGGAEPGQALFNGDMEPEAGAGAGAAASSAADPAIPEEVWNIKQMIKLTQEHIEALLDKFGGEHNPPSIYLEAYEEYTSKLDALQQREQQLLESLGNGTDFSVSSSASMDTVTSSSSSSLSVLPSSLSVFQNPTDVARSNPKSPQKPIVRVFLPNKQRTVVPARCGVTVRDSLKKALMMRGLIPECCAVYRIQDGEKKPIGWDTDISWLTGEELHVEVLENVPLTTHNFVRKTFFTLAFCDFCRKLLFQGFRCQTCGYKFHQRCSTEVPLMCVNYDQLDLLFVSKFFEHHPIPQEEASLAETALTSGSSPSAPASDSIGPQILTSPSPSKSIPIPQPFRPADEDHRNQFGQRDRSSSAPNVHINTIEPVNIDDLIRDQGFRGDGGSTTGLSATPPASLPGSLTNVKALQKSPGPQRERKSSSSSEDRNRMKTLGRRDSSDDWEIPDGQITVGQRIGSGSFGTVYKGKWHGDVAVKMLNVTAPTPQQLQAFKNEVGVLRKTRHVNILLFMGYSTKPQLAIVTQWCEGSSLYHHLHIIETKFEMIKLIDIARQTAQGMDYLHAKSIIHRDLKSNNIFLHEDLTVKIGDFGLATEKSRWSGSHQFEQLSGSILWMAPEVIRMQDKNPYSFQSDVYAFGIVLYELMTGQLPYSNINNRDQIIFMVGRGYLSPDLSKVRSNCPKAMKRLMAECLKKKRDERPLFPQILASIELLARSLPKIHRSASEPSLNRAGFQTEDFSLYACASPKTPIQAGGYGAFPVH

## C=CC(=O)NCCCOc1n[nH]c2ncc(-c3cn(-c4c(F)ccc(NS(=O)(=O)c5cccc(-c6ccccc6)c5)c4F)nn3)cc12
[1]
  IC50: 0.0091 µM

## C=CC(=O)N1CC[C@@H](Oc2n[nH]c3ncc(-c4cn(-c5c(F)ccc(NS(=O)(=O)c6cccc(-c7ccccc7)c6)c5F)nn4)cc23)C1
[1]
  IC50: 0.0123 µM

## COc1cccc2c1C(=O)c1c(O)c3c(c(O)c1C2=O)C[C@@](O)(C(=O)CO)C[C@@H]3O[C@H]1C[C@H](N)[C@H](O)[C@H](C)O1
[2]
  Activity: Active

## C=CC(=O)N1CCCC(NC(=O)CCCCCCOc2n[nH]c3ncc(-c4cn(-c5c(F)ccc(NS(=O)(=O)c6cccc(-c7ccccc7)c6)c5F)nn4)cc23)C1 (configuration not stated)
[1]
  IC50: 0.0347 µM

## C=CC(=O)NCCCCCCN1CCC(COc2n[nH]c3ncc(-c4cn(-c5c(F)ccc(NS(=O)(=O)c6cccc(-c7ccccc7)c6)c5F)nn4)cc23)CC1
[1]
  IC50: 0.0101 µM

## COc1ccc(C[C@H]2NC[C@H](O)[C@H]2OC(C)=O)cc1
[3]
  inhibition: Dose-Dependent Effect

## COc1n[nH]c2ncc(-c3cn(-c4c(F)ccc(NS(=O)(=O)c5cccc(-c6ccccc6)c5)c4F)nn3)cc12
[1]
  IC50: 0.0088 µM
[4]
  IC50: > 1 µM

## C=CC(=O)N1CCC(Oc2n[nH]c3ncc(-c4cn(-c5c(F)ccc(NS(=O)(=O)c6cccc(-c7ccccc7)c6)c5F)nn4)cc23)C1 (configuration not stated)
[5]
  residual activity: 6%
[6]
  IC50: 0.0115 µM
[3]
  inhibition: Dose-Dependent Effect
[1]
  IC50: 0.0115 µM
[7]
  inhibition: Active
[8]
  IC50: 0.204 µM
[4]
  IC50: > 1 µM
[9]
  residual activity: 9%
[10]
  Activity: inactive
[11]
  IC50: 0.0123 µM
[12]
  Activity: inactive
[13]
  inhibition: Active
[14]
  IC50: 0.0213 µM
[15]
  Activity: Active
[16]
  residual activity: 8%
[17]
  residual activity: -4%

## C=CC(=O)N1CCC(Oc2n[nH]c3ncc(-c4cn(-c5c(F)ccc(NS(=O)(=O)c6ccccc6)c5F)nn4)cc23)C1 (configuration not stated)
[1]
  IC50: 0.0101 µM
[4]
  IC50: 0.247 µM

## C=CC(=O)N1CC[C@H](Oc2n[nH]c3ncc(-c4cn(-c5c(F)ccc(NS(=O)(=O)c6cccc(-c7ccccc7)c6)c5F)nn4)cc23)C1
[1]
  IC50: 0.0099 µM
